Blank lines part the entries; values can stand above or below the compound they belong to.
Tests used:
[1] = Selectivity ratio of IC50 for HDAC3 to IC50 for IC50 for HDAC6
Histone deacetylase 3 = Histone deacetylase 3 (Homo sapiens, UniProt O15379); assay: Inhibition of HDAC3 using Fluor-de-Lys as substrate compound pretreated for 30 mins before substrate addition by fluorescence assay
[2] = target: T1, Protein deacetylase HDAC6 (Homo sapiens, UniProt Q9UBN7); assay: Inhibition of HDAC6 using Fluor-de-Lys as substrate compound pretreated for 30 mins before substrate addition by fluorescence assay
T1 sequence (Q9UBN7 whole entry): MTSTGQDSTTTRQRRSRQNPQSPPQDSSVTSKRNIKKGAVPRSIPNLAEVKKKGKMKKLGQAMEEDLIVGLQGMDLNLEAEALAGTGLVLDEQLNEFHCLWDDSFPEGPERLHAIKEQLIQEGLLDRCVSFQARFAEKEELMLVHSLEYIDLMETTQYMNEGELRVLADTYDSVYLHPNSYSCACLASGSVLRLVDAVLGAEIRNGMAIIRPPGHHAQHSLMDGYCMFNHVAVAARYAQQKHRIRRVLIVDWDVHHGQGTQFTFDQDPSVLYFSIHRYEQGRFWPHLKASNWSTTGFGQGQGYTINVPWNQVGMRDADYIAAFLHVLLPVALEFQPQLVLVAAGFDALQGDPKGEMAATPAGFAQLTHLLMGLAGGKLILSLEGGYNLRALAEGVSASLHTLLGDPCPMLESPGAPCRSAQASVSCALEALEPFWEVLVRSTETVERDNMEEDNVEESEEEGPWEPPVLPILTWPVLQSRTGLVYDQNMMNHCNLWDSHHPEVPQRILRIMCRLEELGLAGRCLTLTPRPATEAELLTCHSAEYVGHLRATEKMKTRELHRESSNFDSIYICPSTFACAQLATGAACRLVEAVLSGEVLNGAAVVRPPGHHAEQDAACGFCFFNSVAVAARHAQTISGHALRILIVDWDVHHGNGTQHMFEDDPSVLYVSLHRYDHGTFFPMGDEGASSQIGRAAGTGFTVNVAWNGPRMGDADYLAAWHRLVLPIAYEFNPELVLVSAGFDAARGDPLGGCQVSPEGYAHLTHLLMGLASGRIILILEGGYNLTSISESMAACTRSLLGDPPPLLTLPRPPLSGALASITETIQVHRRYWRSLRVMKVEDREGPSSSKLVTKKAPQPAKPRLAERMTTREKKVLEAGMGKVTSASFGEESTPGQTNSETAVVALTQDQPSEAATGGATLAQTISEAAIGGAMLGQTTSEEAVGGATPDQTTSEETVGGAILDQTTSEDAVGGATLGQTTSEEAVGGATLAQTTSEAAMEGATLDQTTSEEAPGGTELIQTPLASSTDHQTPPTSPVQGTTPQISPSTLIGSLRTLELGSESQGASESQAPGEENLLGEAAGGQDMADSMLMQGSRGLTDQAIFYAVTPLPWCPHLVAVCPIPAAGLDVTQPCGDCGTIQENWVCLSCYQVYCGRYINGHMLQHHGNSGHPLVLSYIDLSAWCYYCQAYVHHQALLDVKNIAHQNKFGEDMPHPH

Histone deacetylase 1 = Histone deacetylase 1 (Homo sapiens, UniProt Q13547); assay: Inhibition of HDAC1 using Fluor-de-Lys as substrate compound pretreated for 30 mins before substrate addition by fluorescence assay
Histone deacetylase = assay: Inhibition of HDAC in human Hela cell lysate using Fluor-de-Lys as substrate compound pretreated for 30 mins before substrate addition by fluorescence assay; assay type: cell-based

Chain of Histone deacetylase 1 (Q13547 whole entry): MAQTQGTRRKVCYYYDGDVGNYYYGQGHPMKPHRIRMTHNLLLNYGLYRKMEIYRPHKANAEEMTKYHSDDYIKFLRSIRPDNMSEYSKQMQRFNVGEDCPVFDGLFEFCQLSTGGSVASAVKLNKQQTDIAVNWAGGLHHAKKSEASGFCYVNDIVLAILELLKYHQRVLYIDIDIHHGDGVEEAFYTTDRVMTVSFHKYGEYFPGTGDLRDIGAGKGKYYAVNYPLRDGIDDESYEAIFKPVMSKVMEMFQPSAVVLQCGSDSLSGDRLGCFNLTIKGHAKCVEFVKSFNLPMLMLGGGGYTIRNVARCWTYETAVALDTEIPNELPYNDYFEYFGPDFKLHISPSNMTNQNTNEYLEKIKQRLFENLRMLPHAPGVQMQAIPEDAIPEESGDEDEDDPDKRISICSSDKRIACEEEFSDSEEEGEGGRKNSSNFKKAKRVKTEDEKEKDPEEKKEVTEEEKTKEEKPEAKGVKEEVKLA
Chain of Histone deacetylase 3 (O15379 whole entry): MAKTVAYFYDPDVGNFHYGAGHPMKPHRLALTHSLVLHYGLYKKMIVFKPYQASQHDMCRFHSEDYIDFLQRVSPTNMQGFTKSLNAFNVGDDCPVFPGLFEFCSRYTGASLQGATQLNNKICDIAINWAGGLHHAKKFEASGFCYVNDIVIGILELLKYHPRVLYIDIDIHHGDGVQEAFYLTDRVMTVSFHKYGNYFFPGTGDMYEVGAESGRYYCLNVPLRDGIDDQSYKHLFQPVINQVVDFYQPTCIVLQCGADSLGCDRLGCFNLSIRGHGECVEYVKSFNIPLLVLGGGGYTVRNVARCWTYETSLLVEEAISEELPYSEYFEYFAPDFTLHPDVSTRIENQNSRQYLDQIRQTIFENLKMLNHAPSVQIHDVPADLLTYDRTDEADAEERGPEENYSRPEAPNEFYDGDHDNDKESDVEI

SMILES: CC(C)(C)C(CCCCC(=O)NO)CC(=O)Nc1ccccc1 (stereo unspecified)
- Ratio IC50 [1]: 2
- IC50 (Histone deacetylase 3): 5.4 µM
- IC50 [2]: 2.4 µM
- IC50 (Histone deacetylase 1): 0.99 µM
- IC50 (Histone deacetylase): 1.94 µM

- Ratio IC50 [1]: 12
SMILES: CCC(CCCCC(=O)Nc1ccccc1)CC(=O)NO (stereo unspecified)

Source: ChEMBL document CHEMBL2203062 (Bioorg Med Chem Lett, 2012)
